# Measured values from US20170105953A1, “METHOD FOR SUPPRESSING DIABETES AND/OR HEPATIC LIPIDS USING TORMENTIC ACID” (priority 2015, published 2017).
# Entries after “also recorded” stand apart in the source; their conditions may differ.
# Assays:
# [1] = blood parameters in high-fat diet-fed mice; format: in vivo; details: HF diet-fed C57BL/6J mice; for blood glucose / circulating TG (triglyceride) levels: week 12; for circulating TG (triglyceride) levels: vs HF group; for Blood profiles: FFA (plasma free fatty acid) / Blood profiles: Insulin / Blood profiles: Leptin / Blood profiles: TC (total cholesterol): mean ± SE, n=9
# Method: For part 2, C57BL/6J mice (4 weeks old) were obtained from the National Laboratory Animal Breeding and Research Center. The mice were divided randomly into two groups after 7 days acclimation. […] The compositions of the experimental diets are given in previous studies. After 8 weeks, the high-fat treated mice were randomly subdivided into four groups (n=9) including PTA1 (0.06 g/kg/day), PTA2 (0.12 g/kg/day) or rosiglitazone (Rosi; 1% methylcellulose, 10 mg/kg body weight) (GlaxoSmithKline) or vehicle and treated by oral gavage one time per day from the 9th to 12th weeks, while the mice were still on the high-fat diet, whereas the CON and high-fat control (HF) mice were treated with vehicle only. At the end, food was withheld from the animals (from 10 p.m. to 10 a.m.). The next day, the mice were sacrificed for blood and tissue collection and analysis. Livers, skeletal muscles, and white adipose tissues (WATs) (including epididymal, mesenteric, and retroperitoneal WAT) were weighed and excised, followed by immediate freezing, and kept at −80° C. for target gene analysis. Heparin (30 units/mL) (Sigma) was added to blood samples. Plasma samples were collected within 30 min by centrifugation at 1600 g for 15 min at 4° C. Plasma was obtained for insulin and leptin assay.
# Blood samples (0.8 mL) were collected from the retro-orbital sinus of fasted mice, and the glucose level was analyzed by the glucose oxidase method (model 1500; Sidekick Glucose Analyzer; YSI Inc., Yellow Springs, Ohio, USA). Plasma triglycerides (TG), total cholesterol (TC), and free fatty acids (FFA) were measured using commercial assay kits according to the manufacturer's directions (Triglycerides-E test, Cholesterol-E test, and FFA-C test, Wako Pure Chemical, Osaka, Japan). The levels of insulin and leptin in blood were analyzed by ELISA using a commercial assay kit according to the manufacturer's directions (mouse insulin ELISA kit, Sibayagi, Gunma, Japan; and mouse leptin ELISA kit, Morinaga, Yokohama, Japan).
# G6 Pase = assay: semiquantitative RT-PCR, liver G6 Pase mRNA; format: in vivo, C57BL/6J mice; details: HF diet-fed mice, normalized to GAPDH, vs HF group
# Description: (§1) For part 2, C57BL/6J mice (4 weeks old) were obtained from the National Laboratory Animal Breeding and Research Center. The mice were divided randomly into two groups after 7 days acclimation. The control (CON) group (n=9) was fed a low-fat diet (diet 12450B, Research Diets, Inc., New Brunswick, N.J., USA), whereas the experimental group was fed a 45% high-fat diet (diet 12451, Research Diets, Inc.) for 12 weeks. The compositions of the experimental diets are given in previous studies. […]
# (§2) Total RNA from the liver tissue was isolated with a Trizol reagent (Molecular Research Center, Inc., Cincinnati, Ohio, USA) according to the manufacturer's directions. The integrity of the extracted total RNA was examined by 2% agarose gel electrophoresis, and the RNA concentration was determined by ultraviolet (UV) light absorbency at 260 and 280 nm (spectrophotometer U-2800A, Hitachi). […] The relative density of the band was evaluated using AlphaDigiDoc 1201 software (Alpha Innotech Co., San Leandro, Calif., USA). All of the measured PCR products were normalized to the amount of cDNA of GAPDH in each sample. […]
# PPARα = assay: semiquantitative RT-PCR, liver PPARα mRNA; format: in vivo, C57BL/6J mice; details: HF diet-fed mice, normalized to GAPDH
# Description: as §1, §2
# GLUT4 = assay: western blot, GLUT4 protein in skeletal muscle; format: in vivo, C57BL/6J mice; details: HF diet-fed mice
# Description: FIG. 4A is a western blot analysis showing the protein contents of GLUT4 in skeletal muscle, and phospho-AMPK (Thr172) and total-AMPK (Thr172) in both liver tissue and skeletal muscle, and phospho-Akt (Ser473) and total-Akt (Ser473) in skeletal muscle of the mice receiving tormentic acid (PTA) by oral gavage for 4 weeks; and
# FIG. 4B is a diagram showing the protein contents of GLUT4 in skeletal muscle, the expression levels of phospho-AMPK (Thr172) to total AMPK in both liver tissue and skeletal muscle, and quantified results from FIG. 4A for the phosphorylation status of Akt (p-Akt normalized to total Akt (pAkt/Akt)) in skeletal muscle of the mice receiving tormentic acid (PTA) by oral gavage for 4 weeks.
# as §1
# [2] = PTA1 0.06 g/kg/day oral gavage 4 weeks
# [3] = PTA2 0.12 g/kg/day oral gavage 4 weeks
smiles,measurement,setting,value
"C[C@@H]1CC[C@]2(C(=O)O)CC[C@]3(C)C(=CC[C@@H]4[C@@]5(C)C[C@@H](O)[C@H](O)C(C)(C)[C@@H]5CC[C@]43C)[C@@H]2[C@]1(C)O [PTA, tormentic acid]",blood glucose,[1]; [2],96.3 mg/dL
same,circulating TG (triglyceride) levels,[1]; [2],decreased
same,Blood profiles: FFA (plasma free fatty acid),[1]; [2],2.15 ± 0.35 mequiv/L
same,Blood profiles: Insulin,[1]; [2],101.7 ± 15.2 μU/mL
same,Blood profiles: Leptin,[1]; [2],2.35 ± 0.092 ng/mL
same,Blood profiles: TC (total cholesterol),[1]; [2],167.0 ± 6.1 mg/dL
same,blood glucose,[1]; [3],94.8 mg/dL
same,circulating TG (triglyceride) levels,[1]; [3],decreased
same,Blood profiles: FFA (plasma free fatty acid),[1]; [3],1.88 ± 0.29 mequiv/L
same,Blood profiles: Insulin,[1]; [3],73.9 ± 11.8 μU/mL
same,Blood profiles: Leptin,[1]; [3],1.78 ± 0.094 ng/mL
same,Blood profiles: TC (total cholesterol),[1]; [3],153.7 ± 6.9 mg/dL
same,mRNA level of G6 Pase in liver,G6 Pase; PTA1 0.06 g/kg/day 4 weeks,significantly decrease
same,mRNA level of G6 Pase in liver,G6 Pase; PTA2 0.12 g/kg/day 4 weeks,significantly decrease
same,mRNA levels of PPARα in liver,PPARα; PTA1 0.06 g/kg/day 4 weeks,increased
same,mRNA levels of PPARα in liver,PPARα; PTA2 0.12 g/kg/day 4 weeks,increased
same,membrane protein levels of GLUT4,GLUT4; PTA1 0.06 g/kg/day 4 weeks,significantly increased
same,membrane protein levels of GLUT4,GLUT4; PTA2 0.12 g/kg/day 4 weeks,significantly increased; also recorded: marked increases
